# Experimental data reported in patent publication US6358975B1, “Method of using selective parp inhibitors to prevent or treat neurotoxicity” (Johns Hopkins University, priority 1997, dated 2002).
# Read-outs that look alike come from different tables or passages of the source.
# What was measured:
# [1] = tested on: OGD toxicity in cortical cultures; assay: Oxygen-glucose deprivation (OGD) toxicity in cortical cultures (FIG. 2C); assay type: cell-based, mice; conditions: 60 minutes OGD, MK801 10 μM, NArg 100 μM, L-arginine 1 mM, benzamide 500 μM; for effect on OGD toxicity in wild-type and PARP+/− cultures: DPQ 10 μM
# Experimental: See Dawson et al., “Resistance to Neurotoxicity in Cortical Cultures from Neuronal Nitric Oxide Synthase Deficient Mice”, J. Neurosci., 16:2479-87 (1996), the disclosure of which is hereby incorporated by reference. Combined OGD was performed as described in Kaku et al., “Antagonism by non-NMDA Receptors Augments the Neuroprotective Effect of NMDA Receptor Blockage in Cortical Cultures Subjected to Prolonged Deprivation of Oxygen and Glucose”, Brain Res., 554:344-47 (1991) and/or Monyer et al., “Oxygen or Glucose Deprivation-induced Neuronal Injury in Cortical Cell Cultures is Reduced by Tetanus Toxin, Neuron, 8:967-73 (1992), both of which are hereby incorporated by reference.
# Specifically, the culture media was completely exchanged with deoxygenated, glucose-free Earle's balanced salt solution (EBSS) containing: 116 mM NaCl, 5.4 mM KCl, 0.8 mM MgSO4, 1 mM NaH2PO4, and 0.9 mM CaCl2, bubbled with 5% H2/85% N2/5% CO2. The cultures were kept in a 37° C., anaerobic chamber for 60 minutes containing the gas mixture 5% H2/85% N2/5% CO2. Combined oxygen-glucose deprivation was terminated by removal of the cultures from the chamber and replacement of the EBSS solution with oxygenated growth media. The cultures were returned to a humidified incubator containing 5% CO2 and atmospheric oxygen at 37° C. overnight.
# (§1) Toxicity was assayed 20-24 hours after exposure to cytotoxic conditions by microscopic examination with computer-assisted cell counting, following staining of all nuclei with 1 μg/ml Hoescht 33342 and staining of dead cell nuclei with 7 μg/ml propidium iodide. All reagents were purchased from Sigma Chemicals, St. Louis, Mo.
# (§2) Both total and dead cells were counted. Glial nuclei fluoresce at a different intensity than neuronal nuclei and were gated out. The percentage of cell death was determined as the […], as compared to the percentage of cell death in control wells to account for cell death due to mechanical stimulation of the cultures. At least two separate experiments using four separate wells were performed. The results are shown in FIG. 2A, with a minimum of 15,000-20,000 neurons counted per data point, which represented the mean ± standard error of the mean (SEM)(n=8).
# [2] = tested on: NMDA toxicity in cerebral cortical cultures; assay: NMDA toxicity in cortical cultures from wild-type, PARP+/− and PARP−/− mice (FIG. 2B); assay type: cell-based; conditions: for effect on NMDA toxicity in PARP−/− cultures / effect on NMDA toxicity in wild-type and PARP+/− cultures: 500 μM NMDA, BZD 500 μM, DPQ 10 μM; for effect on NMDA toxicity in PARP−/− cultures: L-Arg 1 mM; for effect on NMDA toxicity in wild-type and PARP+/− cultures: five minutes, MK801 1 μM, NArg 100 μM
# Experimental: (§3) Mice were obtained having a targeted disruption of the PARP gene (PARP−/−), generated by the method of Wang et al., “Mice Lacking ADPRT and poly(ADP-ribosyl)ation Develop Normally But Are Susceptible to Skin Disease”, Genes Dev., 9:509-20 (1995), which is hereby incorporated by reference. The toxicity in cortical cultures elicited by a five-minute exposure to 500 μM NMDA, by 60 minutes of oxygen and glucose deprivation (OGD), and by NO-donors was evaluated, comparing cultures or cerebral cortical cells from wild-type and PARP−/− mice, as shown in FIG. 2A.
# as §1, §2
# [3] = tested on: NMDA toxicity in cerebral cortical cultures; conditions: concentration of 100 μM; Zhang et al. 1994; cited from earlier work
# [4] = target: T1, PARP (Mus musculus, UniProt P11103); assay: PARP catalytic (self-modification) assay, mouse brain nuclear fraction; assay type: biochemical; conditions: benzamide treatment
# T1 construct: from tissue; host or cells: mouse brain (forebrain) nuclear fraction, wild-type 129/SV
# T1 sequence (P11103 whole entry): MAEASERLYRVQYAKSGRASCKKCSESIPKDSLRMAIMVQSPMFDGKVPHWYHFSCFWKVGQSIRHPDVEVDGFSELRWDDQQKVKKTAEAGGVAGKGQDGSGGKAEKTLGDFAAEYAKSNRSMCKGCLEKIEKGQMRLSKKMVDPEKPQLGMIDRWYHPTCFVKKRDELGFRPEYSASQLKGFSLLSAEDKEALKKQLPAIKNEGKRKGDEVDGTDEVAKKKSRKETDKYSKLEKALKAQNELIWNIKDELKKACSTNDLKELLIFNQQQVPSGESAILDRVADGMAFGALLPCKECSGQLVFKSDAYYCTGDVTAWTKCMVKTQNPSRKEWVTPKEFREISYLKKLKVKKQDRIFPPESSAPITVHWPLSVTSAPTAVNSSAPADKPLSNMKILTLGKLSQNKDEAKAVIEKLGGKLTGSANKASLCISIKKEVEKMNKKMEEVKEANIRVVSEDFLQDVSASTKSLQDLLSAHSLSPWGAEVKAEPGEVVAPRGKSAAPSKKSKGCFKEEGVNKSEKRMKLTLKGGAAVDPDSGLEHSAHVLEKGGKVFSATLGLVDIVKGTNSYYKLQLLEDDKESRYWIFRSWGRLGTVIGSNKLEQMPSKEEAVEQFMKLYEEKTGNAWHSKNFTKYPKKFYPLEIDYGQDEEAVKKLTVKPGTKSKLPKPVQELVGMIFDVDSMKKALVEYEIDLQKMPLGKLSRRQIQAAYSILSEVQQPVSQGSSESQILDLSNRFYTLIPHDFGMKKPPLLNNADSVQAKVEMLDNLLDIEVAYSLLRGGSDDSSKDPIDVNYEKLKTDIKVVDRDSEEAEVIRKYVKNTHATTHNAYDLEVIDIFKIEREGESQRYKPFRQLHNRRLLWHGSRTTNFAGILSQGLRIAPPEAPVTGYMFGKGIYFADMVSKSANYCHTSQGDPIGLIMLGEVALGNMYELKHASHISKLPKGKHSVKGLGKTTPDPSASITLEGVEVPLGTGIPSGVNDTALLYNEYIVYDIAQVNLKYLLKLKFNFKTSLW
# [5] = tested on: NMDA- or NO-induced neurotoxicity in primary cortical cell cultures; assay: Attenuation of NMDA- and NO (SNP)-induced neurotoxicity in primary cortical cell cultures (Example 1, FIG. 1); assay type: cell-based, mice; conditions: for EC50: Mus musculus, read-out: protection against NMDA- or NO-induced neurotoxicity, EC50 (50% of maximal protection)
# Experimental: Primary cortical cell cultures were prepared from gestational, 16-day fetal mice in a procedure modified from the described in Dawson et al., “Resistance to Neurotoxicity in Cortical Cultures from Neuronal Nitric Oxide Synthase Deficient Mice”, J. Neurosci., 16:2479-87 (1996), the disclosure of which is hereby incorporated by reference. Specifically, the cortex was dissected, and the cortical cells were dissociated by a 30-minute digestion in 0.027% trypsin/saline solution (commercially available from Gibco BRL, Gaithersburg, Md.), followed by trituration in modified Eagle's medium (MEM), 20% horse serum, 25 mM glucose and 2 mM L-glutamine.
# The cells were plated on 15 mm multi-well plates coated with polyornithine. Four days after plating, the cells were treated with 5-fluoro-2-deoxyuridine for three days to inhibit the proliferation of non-neuronal cells. The cells were then maintained in MEM, 10% horse serum, 25 mM glucose, and 2 mM L-glutamine in an 8% CO2, humidified 37° C. incubator. The growth medium was refreshed twice per week, and the neurons were allowed to mature for 14 days in culture before being used for experiments.
# Before treatment, these critical cultures were washed with Tris buffered control salt solution (CSS) containing 120 mM NaCl, 5.4 mM KCl, 1.8 mM CaCl2, 25 mM Tris-HCl (pH 7.4) and 15 mM glucose. The washed cells were treated with NMDA or the NO-donor sodium nitroprusside (SNP) for five minutes and then washed again. The cells were then placed in growth media and returned to the incubator overnight.
# Each data point represented the mean ± standard error of the mean (SEM) (n=8) of at least two separate experiments and reflected a minimum of 16,000 neurons counted.
# [6] = tested on: infarct size in the heart; conditions: rabbits, cited from earlier work
# [7] = tested on: toxicity elicited by the NO-donor SNP in cortical cultures; assay: SNP (NO-donor) toxicity in cortical cultures from wild-type, PARP+/− and PARP−/− mice; assay type: cell-based
# Experimental: as §3, §1
# Both total and dead cells were counted. Glial nuclei fluoresce at a different intensity than neuronal nuclei and were gated out. The percentage of cell death was determined as the […], as compared to the percentage of cell death in control wells to account for cell death due to mechanical stimulation of the cultures. […] The results are shown in FIG. 2A, with a minimum of 15,000-20,000 neurons counted per data point, which represented the mean ± standard error of the mean (SEM)(n=8).
# [8] = target: poly(ADP-ribose) polymerase; conditions: read-out: IC50 for inhibiting PARP; reported by Suto et al.; cited from earlier work
SMILES,effect on OGD toxicity in PARP−/− cultures [1],effect on OGD toxicity in wild-type and PARP+/− cultures [1],effect on NMDA toxicity in PARP−/− cultures [2],effect on NMDA toxicity in wild-type and PARP+/− cultures [2],also measured
N=C(N)NCCC[C@H](N)C(=O)O [L-arginine],not in PARP−/− cultures,reversed the nitroarginine protection,no significant effect,,reversal of nitroarginine neuroprotection against NMDA toxicity in wild-type cultures ([2]; L-Arg 1 mM with NArg 100 μM): reversed the neuroprotective effect of nitroarginine
NC(=O)c1ccccc1 [benzamide],no influence,reduced OGD toxicity,no significant effect,reduced NMDA toxicity,"protection against NMDA neurotoxicity [3]: ~50%; other ribosylated nuclear proteins (gray background) in wild-type catalytic assay [4]: reduced; reduction of neurotoxicity at the maximally effective concentration ([5]; 500 μM NMDA or 500 μM SNP, maximally effective concentration): 65%; EC50 [5]: ~100000 nM"
"Oc1cccc2c(O)nccc12 [1,5-dihydroxyisoquinoline]",,,,,reduction in infarct size ([6]; 1 mg/kg): 38-48%
C[C@]12N[C@H](Cc3ccccc31)c1ccccc12 [MK801],no differential effects,profoundly reduced toxicity,,abolished NMDA toxicity,
NC(=O)c1cccc(N)c1 [3-aminobenzamide],,,,,reduction in infarct size in the heart ([6]; single injection 10 mg/kg one minute before occlusion or one minute before reperfusion): 32-42%
"O=C1NCCc2c(OCCCCN3CCCCC3)cccc21 [DPQ, 3,4-dihydro-5-[4-(1-piperidinyl)-butoxy]-1(2H)-isoquinolinone]",,abolished OGD toxicity,no significant effects,significantly greater reduction of NMDA toxicity than benzamide,effect on SNP toxicity in PARP−/− cultures [7]: no effect; effect on SNP toxicity in wild-type and PARP+/− cultures ([7]; not shown in FIG. 2): reduced the toxicity; potency relative to benzamide ([5]; DPQ vs benzamide): 500 times; EC50 ([5]; five-minute exposure to 500 μM NMDA or 500 μM SNP): 200 nM; effect on neurotoxicity at 10-100 μM ([5]; concentrations of 10-100 μM): virtually abolished neurotoxicity; IC50 [8]: 40 nM
